Legend:
Type in all cases: cell-based
[1] = test system: Cercospora beticola; experiment: Antifungal activity assay (microspectrophotometry); details: strain SES; host Beta; medium 1/2PDB+; inoculum PrSp; period of incubation in AFP-solution
Method: (§1) Antifungal activity was measured by microspectrophotometry as previously described (Broekaert, 1990, FEMS Microbiol Lett, 69:55-60). Routinely, tests were performed with 20 μl of a (filter-sterilized) test solution and 80 μl of a suspension of fungal spores (2×10^4 spores/ml) in half strength potato dextrose broth (1/2 PDB). […] Control microcultures contained 20 μl of sterile distilled water and 80 μl of the fungal spore suspension.
(§2) Unless otherwise stated the test organism was Fusarium culmorum (strain IMI 180420) and incubation was done at 25° C. for 48 hours. Percent growth inhibition is defined as 100 times the ratio of the corrected absorbance of the control microculture minus the corrected absorbance of the test microculture over the corrected absorbance at 595 nm of the control microculture. The corrected absorbance values equal the absorbance at 595 nm of the culture measured after 48 hours minus the absorbance at 595 nm measured after 30 min.
(§3) The antifungal potency of the purified proteins was assessed on different plant pathogenic fungi, using the assay described in Example 1. Growth of fungi, collection and harvest of fungal spores and preparation of mycelial fragments were done as previously described (Broekaert et al, 1990, FEMS Microbiol Lett, 69:55-60). Serial dilutions of the antifungal proteins were applied to the fungi, either using growth medium SMF- (the synthetic growth medium of Example 1), medium SMF+ (medium SMF- supplemented with 1 mM CaCl2 and 50 mM KCl), growth medium 1/2 PDB- (half strength potato dextrose broth as in Example 1) or growth medium 1/2 PDB+ (medium 1/2 PDB- supplemented with 1 mM CaCl2 and 50 mM Kcl). The percent growth inhibition was measured by microspectrophotometry. […]
(§4) The abbreviations used are: IC50 =concentration required for 50% growth inhibition determined as described in Example 1; ND=not determined; Sp=spores; PrSp=spores pregerminated in the medium for 24 hours; MF=mycelial fragments preincubated for 48 hours in the medium prior to addition of the proteins; BHR=broad host range; SF=saprophytic fungus; SMF-=synthetic growth medium as described in Example 1; SMF+=SMF- supplemented with 1 mM CaCl2 and 50 mM KCl; 1/2PDB-=half strength potato dextrose broth as described in Example 1; 1/2PDB+=1/2PDB- supplemented with 1 mM CaCl2 and 50 mM KCl.

[2] = test system: Alternaria brassicae; experiment: Antifungal activity assay (microspectrophotometry); details: for IC50: host Brassica, inoculum Sp, period of incubation in AFP-solution 66
Method: as §1, §2, §3, §4

[3] = test system: Alternaria longipes; experiment: Antifungal activity assay (microspectrophotometry); details: strain CBS620.83, host Nicotiana, inoculum Sp, period of incubation in AFP-solution 70
Method: as §1, §2, §3, §4

[4] = test system: Leptospaeria maculans; experiment: Antifungal activity assay (microspectrophotometry); details: for antifungal activity on Leptospaeria maculans (in words): in 1/2PDB+; for IC50: host Brassica
Method: as §1, §2, §3, §4

[5] = test system: hyphae of Fusarium culmorum; experiment: Morphological effect on hyphae
[6] = test system: Mycoshpaerella fijiensis; experiment: Antifungal activity assay (microspectrophotometry); details: strain FUL549; host Musa; medium 1/2PDB+; inoculum MF; period of incubation in AFP-solution 96
Method: as §1, §2
(§5) The antifungal potency of the purified proteins was assessed on different plant pathogenic fungi, using the assay described in Example 1. Growth of fungi, collection and harvest of fungal spores and preparation of mycelial fragments were done as previously described (Broekaert et al, 1990, FEMS Microbiol Lett, 69:55-60). Serial dilutions of the antifungal proteins were applied to the fungi, either using growth medium SMF- (the synthetic growth medium of Example 1), medium SMF+ (medium SMF- supplemented with 1 mM CaCl2 and 50 mM KCl), growth medium 1/2 PDB- (half strength potato dextrose broth as in Example 1) or growth medium 1/2 PDB+ (medium 1/2 PDB- supplemented with 1 mM CaCl2 and 50 mM Kcl). The percent growth inhibition was measured by microspectrophotometry. The concentration required for 50% growth inhibition after 48 h of incubation (IC50 value) was calculated from the dose-reponse curves.
as §4

[7] = test system: Ascochyta pisi; experiment: Antifungal activity assay (microspectrophotometry); details: strain MUCL30164, host Pisum, inoculum Sp, period of incubation in AFP-solution 48
Method: as §1, §2, §5, §4

[8] = test system: Fusarium culmorum; experiment: Antifungal activity assay (microspectrophotometry); details: for IC50: host Cereals, inoculum Sp, period of incubation in AFP-solution 48
Method: as §1, §2, §5, §4

[9] = test system: Botrytis cinerea; experiment: Antifungal activity assay (microspectrophotometry); details: strain K1147, host BHR, inoculum Sp, period of incubation in AFP-solution 48
Method: as §1, §2, §5, §4

[10] = test system: Cladosporium sphaerospermum; experiment: Antifungal activity assay (microspectrophotometry); details: strain K0791, SF, inoculum Sp, period of incubation in AFP-solution 48
Method: as §1, §2, §5, §4

[11] = test system: Verticillium albo-atrum; experiment: Antifungal activity assay (microspectrophotometry); details: strain K0937, host Lycoperisicum, inoculum Sp, period of incubation in AFP-solution 48
Method: as §1, §2, §5, §4

[12] = test system: Penicillum digitatum; experiment: Antifungal activity assay (microspectrophotometry); details: host Citrus fruit, inoculum Sp, period of incubation in AFP-solution 48
Method: as §1, §2, §5, §4

[13] = test system: Trichoderma viride; experiment: Antifungal activity assay (microspectrophotometry); details: strain K1127, SF, inoculum Sp, period of incubation in AFP-solution 48
Method: as §1, §2, §5, §4

[14] = test system: Septoria tritici; experiment: Antifungal activity assay (microspectrophotometry); details: strain K1097, host Triticum, inoculum Sp, period of incubation in AFP-solution 48
Method: as §1, §2, §5, §4

[15] = strain LM36uea, medium 1/2PDB+, inoculum Sp, period of incubation in AFP-solution 48
[16] = strain LM36uea, medium 1/2PDB-, inoculum Sp, period of incubation in AFP-solution 48
[17] = strain SES1, medium 1/2PDB+, inoculum PrSp, period of incubation in AFP-solution 120
[18] = strain SES2, medium 1/2PDB+, inoculum PrSp, period of incubation in AFP-solution 120

Substance	IC50 [1]	IC50 ([2]; medium SMF+)	IC50 ([2]; medium SMF-)	IC50 ([3]; medium SMF+)	IC50 ([3]; medium SMF-)	antifungal activity on Leptospaeria maculans (in words) [4]	IC50 [4, 15]	IC50 [4, 16]	IC50 [4, 17]	IC50 [4, 18]	hyper-branching of hyphae of Fusarium culmorum [5]	IC50 [6]	IC50 ([7]; medium SMF+)	IC50 ([7]; medium SMF-)	IC50 ([8]; strain IMI180420, medium SMF+)	IC50 ([8]; strain IMI180420, medium SMF-)	IC50 ([8]; strain K0311, medium 1/2PDB+)	IC50 ([8]; strain K0311, medium 1/2PDB-)	IC50 ([9]; medium 1/2PDB+)	IC50 ([9]; medium 1/2PDB-)	other results
Ah-AMP1: Aesculus hippocastanum antimicrobial protein 1; 5 kDa polypeptide purified from seeds, 50 amino acids, SEQ ID NO 2 (LCNERPSQTWSGNCGNTAHCDKQCQDWEKASHGACHKRENHWKCFCYFNC)	1.5 µg/mL	3 µg/mL	1.5 µg/mL	100 µg/mL	25 µg/mL	highly active	6 µg/mL	0.5 µg/mL	< 0.75 µg/mL	< 0.75 µg/mL	does not cause hyper-branching	0.75 µg/mL	15 µg/mL	0.8 µg/mL	25 µg/mL	1.5 µg/mL	> 100 µg/mL	12 µg/mL	> 100 µg/mL	25 µg/mL	reduction of activity in medium SMF- versus SMF+ ([2]; on Alternaria brassicae): two-fold; IC50 ([10]; medium 1/2PDB+): 12 µg/mL; IC50 ([10]; medium 1/2PDB-): 0.5 µg/mL; IC50 ([11]; medium 1/2PDB+): > 100 µg/mL; IC50 ([11]; medium 1/2PDB-): 6 µg/mL; IC50 ([12]; strain K0679, medium 1/2PDB-): 6 µg/mL; IC50 ([12]; strain K0879, medium 1/2PDB+): 25 µg/mL; IC50 ([13]; medium 1/2PDB+): > 100 µg/mL; IC50 ([13]; medium 1/2PDB-): > 100 µg/mL; IC50 ([14]; medium 1/2PDB+): 1.5 µg/mL; IC50 ([14]; medium 1/2PDB-): 0.5 µg/mL
Hs-AFP1: Heuchera sanquinea antifungal protein 1; 5 kDa polypeptide purified from seeds, 54 amino acids, SEQ ID NO 1 (DGVKLCDVPSGTWSGHCGSSSKCSQQCKDREHFAYGGACHYQFPSVKCFCKRQC)	1.5 µg/mL	3 µg/mL	1.5 µg/mL	6 µg/mL	0.75 µg/mL	is not	> 100 µg/mL	25 µg/mL	> 100 µg/mL	> 100 µg/mL	causes hyper-branching	12.5 µg/mL	> 5 µg/mL	1.5 µg/mL	1 µg/mL	0.5 µg/mL	3 µg/mL	1 µg/mL	25 µg/mL	6 µg/mL	antifungal activity on Fusarium culmorum (in words) ([8]; in 1/2PDB+): highly active; IC50 ([10]; medium 1/2PDB+): 3 µg/mL; IC50 ([10]; medium 1/2PDB-): 1 µg/mL; IC50 ([11]; medium 1/2PDB+): 30 µg/mL; IC50 ([11]; medium 1/2PDB-): 12 µg/mL; IC50 ([12]; strain K0679, medium 1/2PDB-): 1 µg/mL; IC50 ([12]; strain K0879, medium 1/2PDB+): 3 µg/mL; IC50 ([13]; medium 1/2PDB+): > 100 µg/mL; IC50 ([13]; medium 1/2PDB-): 15 µg/mL; IC50 ([14]; medium 1/2PDB+): 3 µg/mL; IC50 ([14]; medium 1/2PDB-): 0.5 µg/mL
